# Earlier results as cited in patent publication US20230304031A1, “VECTORS AND METHODS FOR IN VIVO TRANSDUCTION” (Abintus Bio, Inc., priority 2020, published 2023).
# Where a name gives a salt, the structure may show the parent alone. Read-outs that look alike come from different tables or passages of the source.
# B1: G-CSF: hematopoietic growth factor (protein, UniProt P09919 31-207, looked up)
# Granulocyte …: TPLGPASSLPQSFLLKCLEQVRKIQGDGAALQEKLVSECATYKLCHPEELVLLGHSLGIPWAPLSSCPSQALQLAGCLSQLHSGLFLYQGLLQALEGISPELGPTLDTLQLDVADFATTIWQQMEELGMAPALQPTQGAMPAFASAFQRRAGGVLVASHLQSFLEVSYRVLRHLAQP
# Columns and labels:
# HSPC [1] = conditions: cited from earlier work; for HSPC mobilization (in words): as reported in the cited literature; for G-CSF-induced HSPC mobilization with NSAID: blocking of PGE2 production
# CD34+ cells / HSPC = conditions: cited from earlier work; for CD34+ HSPC counts in the blood: 24 hours post-injection; for median yield of CD34+ cells: 5 µg/kg/day after chemotherapy, relapsed Hodgkin's disease; for increase in the harvest of CFU-GM over baseline: 5 µg/kg/day alone for 4 days
# [2] = target: phosphodiesterase type 5 (PDE5) (Homo sapiens, UniProt O76074); conditions: after oral administration; cited from earlier work
# HSPC [3] = conditions: mice / murine models; cited from earlier work
# VLA-4 = conditions: after SCF stimulation; cited from earlier work
# VLA-5 = conditions: after SCF stimulation; cited from earlier work
# HSCs = conditions: cited from earlier work
# [4] = 10 breast cancer patients, 0.84 ± 0.1 µg/kg/day
molecule,measurement,setting,value
CCCCCCCCc1ccc(CCC(N)(CO)CO)cc1 [FTY720],HSPC mobilization (in words),HSPC [1],decreases steady-state mobilization of HSPCs
"O=P1(N(CCCl)CCCl)NCCCO1 (centres unmarked) [cyclophosphamide, reference compound]",CD34+ cell yields,CD34+ cells / HSPC; doses of 4-7 g/m2,~3.62 × 10^6 cells/kg
same,increase in the number of CFU-GM,CD34+ cells / HSPC; single dose of 4 g/m^2,up to 25 fold
"c1cc(CN2CCCNCCNCCCNCC2)ccc1CN1CCCNCCNCCCNCC1 [AMD3100, reference compound]",HSPC mobilization (in words),HSPC [1],rapidly mobilize HSPCs in various animal models
same,CD34+ HSPC counts in the blood,CD34+ cells / HSPC; subcutaneous 240 µg/kg,approximately 10 cells/µL
same,peak CD34+ HSPC counts in the blood,CD34+ cells / HSPC; subcutaneous 240 µg/kg,approximately 25 cells/µL
same,time to peak CD34+ HSPC counts,CD34+ cells / HSPC; subcutaneous 240 µg/kg,8 to 10 h
same,CD34+ HSPC counts in the blood,CD34+ cells / HSPC; subcutaneous 480 µg/kg,approximately 20 cells/µL
same,peak CD34+ HSPC counts in the blood,CD34+ cells / HSPC; subcutaneous 480 µg/kg,approximately 30 cells/µL
same,time to peak CD34+ HSPC counts,CD34+ cells / HSPC; subcutaneous 480 µg/kg,8 to 10 h
CCCc1nn(C)c2c(=O)[nH]c(-c3cc(S(=O)(=O)N4CCN(C)CC4)ccc3OCC)nc12 [Sildenafil citrate],time of peak activity,[2],2 h
vedolizumab: humanized monoclonal antibody against the α4β7 integrin,HSPC mobilization (in words),HSPC [3],"Reduction in plasma CXCL12 levels, accompanied by reduced HSPC egress"
C[C@@H](NCCCc1cccc(C(F)(F)F)c1)c1cccc2ccccc12 [Cinacalcet],"HSPC adhesion, migration and homing",HSPC [1]; pharmacological activation of CaR,increased adhesion of HSPCs to collagen I and fibronectin
CC(C)Cc1ccc(C(C)C(=O)O)cc1 (centres unmarked) [ibuprofen],G-CSF-induced HSPC mobilization with NSAID,HSPC [1],doubled
"O=C(O)[C@H](Cc1ccc(OC(=O)N2CCCC2)cc1)NC(=O)[C@@H]1CCCN1S(=O)(=O)c1ccccc1 [BOP, N-(benzenesulfonyl)-L-prolyl-L-O-(1-pyrrolidinylcarbonyl)tyrosine]",HSPC mobilization (in words),HSPC [1],rapidly mobilizes long-term multi-lineage reconstituting HSPC
Natalizumab: humanized monoclonal anti-VLA-4 antibody [reference compound],increase in circulating CD34+ cells,CD34+ cells / HSPC; patients receiving infusion therapy for multiple sclerosis,approximately 3 fold
SCF: Stem Cell Factor,increase of VLA-4 expression on CD34+ HSPC,VLA-4,approximately 2 fold
same,increase of VLA-5 expression on CD34+ HSPC,VLA-5,4- to 10 fold
COc1ccc2c(c1)c(CC(=O)O)c(C)n2C(=O)c1ccc(Cl)cc1 [indomethacin],G-CSF-induced HSPC mobilization with NSAID,HSPC [1],doubled
CCOCc1cc(OC)c(-c2ccc(C[C@H](NC(=O)c3c(F)cccc3F)C(=O)O)cc2)c(OC)c1 [Firategrast],HSPC mobilization (in words),HSPC [1],disrupt HSPC retention in the postnatal hematopoietic niche
CC(=O)Oc1ccccc1C(=O)O [aspirin],G-CSF-induced HSPC mobilization with NSAID,HSPC [1],doubled
GM-CSF: granulocyte-macrophage colony stimulating factor [reference compound],median yield of CD34+ cells,CD34+ cells / HSPC,5.6 × 10^6 CD34+ cells/kg
same,increase in the harvest of CFU-GM over baseline,CD34+ cells / HSPC,33.7 fold
same,CFU-GM content of mobilized HSPC populations,CD34+ cells / HSPC; 250 µg/m2 versus 125 µg/m2,superior yield
same,increased HSPC in the peripheral blood,"CD34+ cells / HSPC; 4-64 µg/kg/day continuous intravenous infusion up to 7 days, cancer patients",4- to 18 fold
"CC(=O)N[C@@H](CS)C(=O)O [NAC, N-acetyl-L-cysteine]",HSPC mobilization (in words),HSPC [1],significantly abrogate UDP-glc-induced HSPC mobilization
B1,median yield of CD34+ cells,CD34+ cells / HSPC,7.6 × 10^6 CD34+ cells/kg
same,increase in the harvest of CFU-GM over baseline,CD34+ cells / HSPC,35.6 fold
same,increase in CD34+ content of peripheral blood over baseline,CD34+ cells / HSPC; 5 µg/kg/day,sevenfold
same,median harvest,"CD34+ cells / HSPC; 10 µg/kg/day, 34 patients with Hodgkin's disease or NHL",2.8 × 10^6 CD34+ cells/kg
same,CD34+ HSPC yield,CD34+ cells / HSPC; 10 µg/kg/day,11.32 × 10^7 /kg cells
same,increase in CD34+ content of peripheral blood over baseline,CD34+ cells / HSPC; 10 µg/kg/day,28 fold
same,mean total harvested,"CD34+ cells / HSPC; 12 µg/kg/day for 6 days, 17 patients with non-myeloid malignant disorders",33 × 10^4 CFU-GM/kg
same,CD34+ HSPC yield,CD34+ cells / HSPC; 24 µg/kg/day,48.25 × 10^7 /kg cells
same,mean yield after the first leukapheresis,CD34+ cells / HSPC; [4],0.77 × 10^6 CD34+ cells/kg
same,mean yield after the second leukapheresis,CD34+ cells / HSPC; [4],1.42 × 10^6 CD34+ cells/kg
same,increase in HSPC over baseline,CD34+ cells / HSPC; G-CSF 5 µg/kg/day for a further 5 days after 7 days of GM-CSF 5 µg/kg/day,80 fold
same,mobilized PBPC cells expressing CD38,CD34+ cells / HSPC; by mobilization regimen,88%
same,mean harvest yield,"CD34+ cells / HSPC; healthy subjects, G-CSF 5 plus GM-CSF 5 µg/kg/day versus G-CSF 10 µg/kg/day alone",119 × 10^6 CD34+ cells/kg
same,numbers of HSCs in the bloodstream,HSCs; 1 day after 4 consecutive days of injections,"3,400 HSCs/mouse"
same,HSC mobilization (comparison in words),HSCs; regimens as worded,not significantly better than the 2-h Viagra + AMD3100 mobilization protocol
